# Measurements taken from patent US20030091585A1, “Vaccine composition containing a promoter peptide” (priority 2001, published 2003).
# Assays:
# neutrophils = conditions: stimulated neutrophils; cited from earlier work
# phospholipase C (PLC) = conditions: in B-lymphocytes; cited from earlier work
# [1] = test system: specific receptor protein in the cell membrane of the U266 cell line; conditions: cited from earlier work
# [2] = test system: monocytes, B-lymphocytes, and neutrophils; conditions: cited from earlier work
# [3] = test system: human B-lymphocyte cell line U266; conditions: cited from earlier work
# human neutrophils = conditions: cited from earlier work
# [4] = test system: test mice (6-8-week-old athymic nu/nu on a BALB/c background); test: Quantity of anti-E2 antibody (ELISA) in blood of mice injected with vaccine; type: in vivo; conditions: when used together with alum; E2 protein antigen
# Experimental: 5 μg of E2 protein antigen obtained in Reference Example was dissolved in 150 μl of PBS (pH 7.2), and 7 μg of the peptide of sequence of SEQ ID NO: 1 synthesized using a conventional peptide synthesis method (Houghten, R. A. et al., Nature, 354, 84(1991)) was added thereto together with alum to obtain a vaccine.
# The vaccine thus obtained was injected subcutaneously into test mice (6-8-week-old athymic nu/nu on a BALB/c background). After 5 weeks, a booster injection was carried out, and after another 2 weeks, blood samples were taken from the mice.
# For comparison, three different vaccine compositions were also tested as above. These comparative controls were: a vaccine containing E2 protein and alum; a vaccine containing E2 protein and the peptide of sequence of SEQ ID NO: 1; and a vaccine containing alum and the peptide of sequence of SEQ ID NO: 1. The peptides used in this Example include the D-Met residue of SEQ ID NO: 1 having CONH2 substituted for the carboxyl group. […]
# Thereafter, 80 μl/well of color former (ABSI (Chemicon®)) were added to each of the 96-wells of the plate, and they were incubated at room temperature for 20 minutes. After the reaction, the O.D. of each well was determined at the wavelength of 405 nm with an ELISA reader.
substance,measurement,setting,value
Trp Lys Tyr Met Val Met [peptide of SEQ ID NO: 1],production of active oxygen species,neutrophils,increase
same,activity of phospholipase C (PLC),phospholipase C (PLC),enhances
same,"binding with receptor, activation of the cellular signal pathway",[1],binding with a specific receptor protein
same,"activation of monocytes, B-lymphocytes, and neutrophils",[2],activates
same,intracellular calcium [Ca2+]I release,[3],induces
same,chemotaxis,human neutrophils,induces chemotaxis
same,effect of promoting the vaccination efficiency,[4],remarkable synergistic effect
